Experimental findings from patent publication US7504411B2, “2,3,6-Trisubstituted-4-pyrimidone derivatives” (Mitsubishi Tanabe Pharma Corporation, priority 2003, dated 2009) are described below.

In this assay the target is T1, bovine cerebral TPK1 (Bos taurus, UniProt A0A3Q1MT31).
T1 construct: Phosphorylation by Bovine Cerebral TPK1; from tissue; host or cells: bovine brain (cerebrum)
T1 sequence (A0A3Q1MT31 1-419): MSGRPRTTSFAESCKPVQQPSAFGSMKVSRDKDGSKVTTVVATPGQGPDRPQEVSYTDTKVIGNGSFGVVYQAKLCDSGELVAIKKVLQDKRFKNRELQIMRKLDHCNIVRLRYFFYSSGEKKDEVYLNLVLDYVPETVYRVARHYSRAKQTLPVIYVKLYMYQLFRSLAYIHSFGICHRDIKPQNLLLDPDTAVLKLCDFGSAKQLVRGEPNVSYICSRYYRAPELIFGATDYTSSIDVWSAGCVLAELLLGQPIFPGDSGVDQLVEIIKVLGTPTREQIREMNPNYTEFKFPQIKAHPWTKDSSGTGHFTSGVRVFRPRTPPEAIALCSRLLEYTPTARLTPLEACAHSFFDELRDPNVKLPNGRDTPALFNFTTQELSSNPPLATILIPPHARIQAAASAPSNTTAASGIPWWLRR
Briefly: Inhibitory activity against P-GS1 phosphorylation by bovine cerebral TPK1. The assay is classed as biochemical. Particulars: 41.7 μM [γ-32P]ATP, 25° C., 2 hours. As for the experimental part:
Inhibitory Activity of the Medicament of the Present Invention against P-GS1 Phosphorylation by Bovine Cerebral TPK1
A mixture containing 100 mM MES-sodium hydroxide (pH 6.5), 1 mM magnesium acetate, 0.5 mM EGTA, 5 mM β-mercaptoethanol, 0.02% Tween 20, 10% glycerol, 12 μg/ml P-GS1, 41.7 μM [γ-^32P] ATP (68 kBq/ml), bovine cerebral TPK1 and a compound shown in Table (a final mixture contained 1.7% DMSO deriving from a solution of a test compound prepared in the presence of 10% DMSO) was used as a reaction system. The phosphorylation was started by adding ATP, and the reaction was conducted at 25° C. for 2 hours, and then stopped by adding 21% perchloric acid on ice cooling. The reaction mixture was centrifuged at 12,000 rpm for 5 minutes and adsorbed on P81 paper (Whatmann), and then the paper was washed four times with 75 mM phosphoric acid, three times with water and once with acetone. The paper was dried, and the residual radioactivity was measured using a liquid scintillation counter.
For the molecule `Cn1c(N2CCNC(c3ccccc3)C2)nc(-c2ccncc2)cc1=O` (stereo not drawn) [XA361], half-maximal inhibition (IC50) was put at 18 nM.

In turn, `Cn1c(N2CCCC(C#N)(c3ccccc3)C2)nc(-c2ccncc2)cc1=O` (stereo not drawn) [XB80] gave an IC50 of 230 nM. Against the preceding molecule, the IC50 is about 13-fold higher.

The molecule `COc1cc(F)ccc1C1CN(c2nc(-c3ccncn3)cc(=O)n2C)CCN1Cc1ccccc1` (stereo not drawn) [YA0864] displayed an IC50 of 216 nM.

What is called IC50 is the concentration that gives 50% inhibition. High values mean weaker potency in that assay, low ones greater potency in that assay.
